Experiments:
BRD4 (I) = BRD4 (I) (Homo sapiens (Human), UniProt O60885); assay: Fluorescence anisotropy (FA) binding test on BRD4 (I); details: BRD4 (I) 10 nM, fluorescent (+)-JQ1 substrate 5 nM, read-out: BRD4 (1) IC50
Experimental: The binding activity of the compound to BRD4 (I) was tested using a fluorescence anisotropy (FA) method. The principle of FA test is to calculate and analyze the fluorescence polarization values in the horizontal and vertical directions by detecting the change of molecular weight before and after the interaction of fluorescein-labeled small molecules with other molecules. If the equilibrium of the binding between the fluorescently labeled small molecule and macromolecule is established, it will move slowly when excited, and the measured fluorescence polarization value will increase. If the binding between the fluorescently labeled small molecule and the macromolecule is replaced by another ligand, its rotation or flipping speed in the free state will be faster, and the emitted light will be depolarized relative to the plane of the excitation light, and the measured polarized light value will decrease to calculate the fluorescence anisotropy of the sample.
Expression and purification of the BRD4(I) recognition domain: colonies of newly transformed plasmid DNA from E. coli BL21(DE3)-condon plus-RIL cells were cultivated in 50 mL of Terrific Broth medium containing 50 μg/mL kanamycin and 34 μg/mL chloramphenicol at 37° C. overnight (starting culture). The starting culture was then diluted 100-fold in 1 L of fresh TB medium and the cells were grown at 37° C. to an optical density of about 0.8 at OD600 and then the temperature was lowered to 16° C. When the system was equilibrated at 16° C., the optical density at OD600 was approximately 1.2, and protein expression was induced with 0.2 mmol of isopropyl-β-D-thiogalactopyranoside (IPTG) overnight at 16° C. Bacteria were harvested by centrifugation (4000×g, 20 minutes, 4° C.) and stored as a pellet at −80° C. The cells expressing His 6-tagged protein was resuspend in lysis buffer [50 mmol 4-hydroxyethylpiperazineethanesulfonic acid (HEPES), 25° C., pH 7.5, 500 mmol NaCl, 10 mmol imidazole, 5% glycerol and freshly added 0.5 mmol of tris(2-carboxyethyl)phosphine hydrochloride (TCEP) and 1 mmol of phenylmethanesulfonyl fluoride (PMSF)] and lysed at 4° C. using JN 3000PLUS high pressure homogenizer (JNBIO-Guangzhou, China). The lysate was clarified by centrifugation (12,000×g for 1 hour at 4° C.) and applied to a nickel-nitriloacetate agarose column. The column was washed once with 50 mL of wash buffer containing 30 mmol of imidazole. The protein was eluted using imidazole in an elution buffer in a stepwise elution (100-250 mmol imidazole in 50 mmol HEPES, 25° C., pH 7.5, 500 mmol NaCl, 5% glycerol). All fractions were collected and monitored by SDS-polyacrylamide gel electrophoresis (Bio-Rad Criterion TM Precast Gels, 4-12% Bis-Tris, 1.0 mm, from Bio-Rad, CA). After 1 mmol of dithiothreitol (DTT) was added, the eluted proteins were treated with tobacco […] virus (TEV) protease overnight at 4° C. to remove the His6 tag. The protein was concentrated and further purified by size exclusion chromatography on a Superdex 75 16/60 HiLoad gel filtration column. The samples were monitored by SDS-polyacrylamide gel electrophoresis and concentrated to 8-10 mg/mL with gel filtration buffer, 10 mmol Hepes pH 7.5, 500 mM NaCl, 1 mmol DTT, and used for protein binding assays and crystallization.
The fluorogenic substrate was (+)-JQ1 linked to a fluorescent molecule and the working concentration was 5 nM. BRD4 (I) protein had 10 nM of working concentration and the total reaction system was 40 μL. The buffer was 50 mM 4-hydroxyethylpiperazineethanesulfonic acid (HEPES) pH 7.4, 150 mM NaCl, 0.5 mM 3[(3-cholamidopropyl)dimethylammonio]propanesulfonate (CHAPS). […] The final concentration of DMSO was chosen to be 0.2%, taking into account the solubility of the compound and the effect of DMSO on the assay. All measurements were made under these conditions. […]

[1] = Metabolic stability in human liver microsomes; format: in vitro ADME; details: human liver microsomes 0.5 mg/ml, 1 μM compound, NADPH
Experimental: The system which was 150 μl of human liver microsomes (final concentration: 0.5 mg/ml) was used for metabolic stability incubation. The system contained reduced coenzyme II (NADPH) (final concentration: 1 mM) and 1 μM compound, positive control or negative control. The reaction was terminated with acetonitrile containing (imiprozine, batch number: 3221; tinidazole, given) at 0 min, 5 min, 10 min, and 30 min, respectively. The mixture was vortexed for 10 min, centrifuged at 15000 rpm for 10 min, and 50 μl of the supernatant was injected into a 96-well plate. The metabolic stability of the compound was calculated by measuring the relative reduction in the original medicament.
(§1) HLM Clint (μl/min/mg) refers to the clearance rate of compounds in human liver microsomes having a unit of μl/min/mg; mLM Clint (μl/min/mg) refers to the clearance rate of compounds in mouse liver microsomes having a unit of μl/min/mg; HLM t1/2 (min) refers to the half-life of the compound in human liver microsomes having a unit of minutes; mLM t1/2 (min) refers to the half-life of the compound in mouse liver microsomes having a unit of minutes. TDI means that the mechanism inhibition test of compounds on CYP enzyme evaluates whether the compound has time-dependent inhibition of the enzyme.

[2] = Metabolic stability in mouse liver microsomes; format: in vitro ADME
3A4 = 3A4 (Homo sapiens (Human), UniProt P08684); assay: Direct inhibition test (DI test), CYP 3A4; format: in vitro ADME; details: human liver microsomes 0.2 mg/ml, 20 min; second of two values a/b (two 3A4 probes midazolam, testosterone; assignment not given)
Experimental: (§2) The system which was 100 μl of human liver microsomes (final concentration: 0.2 mg/ml) was used for direct inhibition incubation. The system contained NADPH (final concentration: 1 mM), 10 μl compound, positive inhibitor cocktail (ketoconazole, 10 μl, quinidine 10 μl, sulfaphenazole 100 μl, naphthoflavone 10 μl, tranylcypromine 1000 μl), negative control 10 μl DMSO and mixed probe substrate (midazolam 10 μl, testosterone 100 μl, dextromethorphan 10 μl, diclofenac 20 μl, phenacetin 100 μl, mephenytoin 100 μl). The reaction was stopped after the system was incubated for 20 min. The relative activity of the enzyme was calculated by measuring the relative amount of production of the metabolite.

CYP3A4 = CYP3A4 (Homo sapiens (Human), UniProt P08684); assay: Direct inhibition test (DI test), CYP 3A4; format: in vitro ADME; details: human liver microsomes 0.2 mg/ml, first of two values a/b (two 3A4 probes midazolam, testosterone; assignment not given), read-out: Direct inhibition rate (%) 3A4, first value
Experimental: as §2

2D6 = 2D6 (Homo sapiens (Human), UniProt P10635); assay: Direct inhibition test (DI test), CYP 2D6; format: in vitro ADME; details: human liver microsomes 0.2 mg/ml, 20 min
Experimental: as §2

2C9 = 2C9 (Homo sapiens (Human), UniProt P11712); assay: Direct inhibition test (DI test), CYP 2C9; format: in vitro ADME; details: human liver microsomes 0.2 mg/ml, 20 min
Experimental: as §2

CYP2C19 = CYP2C19 (Homo sapiens (Human), UniProt P33261); assay: Direct inhibition test (DI test), CYP 2C19; format: in vitro ADME; details: human liver microsomes 0.2 mg/ml, read-out: Direct inhibition rate (%) 2C19
Experimental: as §2

CYP enzyme = assay: Mechanistic inhibition test (TDI test); format: in vitro ADME; details: human liver microsomes 0.2 mg/ml; mechanism inhibition if kobs greater than 200
Experimental: The system which was 200 μl of human liver microsomes (final concentration: 0.2 mg/ml) was used for mechanistic inhibition incubation. The system contained 10 μl compound, mixed positive inhibitor (Troleandomycin 10 μl, Paroxetine 10 μl, Tienilic acid 10 μM, Furafylline 10 μl) or 10 μl negative control PRO. After NADPH (final concentration: 1 mM) or PBS was added, the system was incubated for 0 min, 5 min, 10 min and 30 min, then NADPH (final concentration: 1 mM) and mixed probe substrate (Midazolam 5 μM, Testosterone 50 μl, Dextromethophan 5 μM, Diclofenac 10 μl, Phenacetin 5 0 μM, S-(+)-mephenytoin 50 μl) were added and incubated for 10 min. Then the reaction was stopped. The test for positive inhibitor CYP2C19 was carried out alone, the inhibitor S-(+)-fluoxetine was 100 μM. The enzyme activity was calculated by measuring the relative production amount of metabolite. kobs was calculated.
as §1

[3] = system: MM.1S nude mice xenografts; assay: Growth of MM.1S nude mice xenografts in vivo; parameters: species or system Balb/C nude mice; details: 50 mg/kg qd/14 po
Experimental: Balb/C nude mice (6 weeks, female, Beijing Huafukang Biotechnology Co., Ltd.) were purchased, and the animals were conditioned for about one week before the test. MM.1S cells were cultured in vitro, and the cells in logarithmic growth phase were resuspended in serum-free RPMI1640 medium to adjust the cell concentration. The cell suspension was subcutaneously injected into forefoot armpit of the Balb/C nude mice with a syringe, and each animal was injected with 150 μL (8.0×10^6/mouse). When the average tumor volume grew to about ˜150 mm^3, the animals were divided into 4 groups containing solvent control group, 50 mg/kg OTX-015 group, and 20 and 50 mg/kg compound 6 groups by the randomized block method and each group contained six animals. […] During the administration period, the tumor diameter was measured twice a week, the body weight of the animals was weighed, the living state of the animals was observed, and abnormal conditions were recorded.
The formula for calculating tumor volume (TV): TV=½×a×b^2, where a and b represent length and width, respectively.
The relative tumor volume (RTV) was calculated based on the measured results, and the calculation formula was: RTV=Vt/V0. Wherein V0 was the measured tumor volume at the time of administration by cage (ie, d0), and Vt was the tumor volume at each measurement.
The relative tumor proliferation rate T/C (%) was calculated based on the measured results, and the calculation formula was as follows: T/C (%)=(TRTV/CRTV)×100%, TRTV: treatment group RTV; CRTV: negative control group RTV.

DLBCL cells = details: cited from earlier work

Chain of 3A4 (P08684 whole entry): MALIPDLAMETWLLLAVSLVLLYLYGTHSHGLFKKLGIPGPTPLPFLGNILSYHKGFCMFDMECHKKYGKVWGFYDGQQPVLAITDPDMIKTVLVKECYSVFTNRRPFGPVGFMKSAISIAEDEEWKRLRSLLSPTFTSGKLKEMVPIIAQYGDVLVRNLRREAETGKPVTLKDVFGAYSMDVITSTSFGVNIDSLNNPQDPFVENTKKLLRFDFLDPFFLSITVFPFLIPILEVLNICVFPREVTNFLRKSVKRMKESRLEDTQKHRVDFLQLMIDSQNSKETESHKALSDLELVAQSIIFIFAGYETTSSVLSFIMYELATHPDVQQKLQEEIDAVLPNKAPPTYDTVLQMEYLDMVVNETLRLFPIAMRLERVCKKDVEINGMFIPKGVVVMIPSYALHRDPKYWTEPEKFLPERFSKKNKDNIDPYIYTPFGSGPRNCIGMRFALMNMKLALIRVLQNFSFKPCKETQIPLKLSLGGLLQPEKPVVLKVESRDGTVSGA
Chain of CYP3A4 (P08684 whole entry): as above
Chain of 2D6 (P10635 whole entry): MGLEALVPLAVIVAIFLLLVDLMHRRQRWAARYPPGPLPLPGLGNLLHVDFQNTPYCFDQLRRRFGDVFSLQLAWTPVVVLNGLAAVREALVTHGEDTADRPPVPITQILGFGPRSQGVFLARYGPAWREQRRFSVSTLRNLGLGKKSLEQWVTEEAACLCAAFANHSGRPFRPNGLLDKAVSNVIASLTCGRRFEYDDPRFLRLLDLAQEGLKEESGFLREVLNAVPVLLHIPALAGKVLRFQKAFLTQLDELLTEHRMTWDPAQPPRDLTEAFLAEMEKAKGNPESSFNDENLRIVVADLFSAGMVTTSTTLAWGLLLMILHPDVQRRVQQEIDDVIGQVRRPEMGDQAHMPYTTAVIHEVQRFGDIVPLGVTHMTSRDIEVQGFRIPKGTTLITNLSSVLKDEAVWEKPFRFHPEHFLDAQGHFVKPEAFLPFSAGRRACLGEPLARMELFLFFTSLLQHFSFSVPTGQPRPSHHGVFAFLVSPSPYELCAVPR
Chain of 2C9 (P11712 whole entry): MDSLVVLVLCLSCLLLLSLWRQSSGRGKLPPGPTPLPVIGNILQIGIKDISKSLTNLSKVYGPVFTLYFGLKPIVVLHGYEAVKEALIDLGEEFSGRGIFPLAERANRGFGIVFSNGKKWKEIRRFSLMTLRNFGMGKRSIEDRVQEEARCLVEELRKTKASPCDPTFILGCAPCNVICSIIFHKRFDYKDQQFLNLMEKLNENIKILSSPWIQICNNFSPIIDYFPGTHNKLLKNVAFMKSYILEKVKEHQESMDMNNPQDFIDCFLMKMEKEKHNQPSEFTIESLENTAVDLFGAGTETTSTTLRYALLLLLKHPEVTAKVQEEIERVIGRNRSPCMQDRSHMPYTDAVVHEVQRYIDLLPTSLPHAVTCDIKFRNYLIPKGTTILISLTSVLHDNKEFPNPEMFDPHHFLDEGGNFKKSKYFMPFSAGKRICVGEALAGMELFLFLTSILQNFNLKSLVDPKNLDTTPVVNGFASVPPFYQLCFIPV
Chain of CYP2C19 (P33261 whole entry): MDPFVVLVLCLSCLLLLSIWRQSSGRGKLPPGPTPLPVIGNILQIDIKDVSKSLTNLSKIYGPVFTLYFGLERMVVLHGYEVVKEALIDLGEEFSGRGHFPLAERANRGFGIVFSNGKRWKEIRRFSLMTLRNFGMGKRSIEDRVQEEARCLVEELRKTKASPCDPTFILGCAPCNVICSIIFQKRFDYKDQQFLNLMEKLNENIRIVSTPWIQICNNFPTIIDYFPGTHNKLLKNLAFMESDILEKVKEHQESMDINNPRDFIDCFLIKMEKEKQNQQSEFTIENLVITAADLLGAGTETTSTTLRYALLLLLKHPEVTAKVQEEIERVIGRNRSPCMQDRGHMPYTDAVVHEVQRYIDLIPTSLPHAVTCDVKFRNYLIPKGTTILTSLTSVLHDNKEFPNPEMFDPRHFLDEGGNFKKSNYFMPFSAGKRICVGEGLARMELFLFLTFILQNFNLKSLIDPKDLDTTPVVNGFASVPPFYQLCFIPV

| SMILES | IC50 (BRD4 (I)) [nM] | microsomal CLint at 1 μM ([1]; read-out: HLM Clint) [µL/min/mg] | half-life at 1 μM ([1]; read-out: HLM t1/2) [min] | half-life at 1 μM ([2]; read-out: MLM t1/2) [min] | microsomal CLint at 1 μM ([2]; read-out: mLM Clint) [µL/min/mg] | Direct inhibition rate (%) 3A4, second value (3A4) [%] | inhibition at 20 min (CYP3A4) [%] | Direct inhibition rate (%) 2D6 (2D6) | Direct inhibition rate (%) 2C9 (2C9) | inhibition at 20 min (CYP2C19) [%] | TDI (CYP enzyme) | RTV (mean SD) [3] | T/C (%) [3] [%] | TV (mm^3, mean) d0 ([3]; d0 (at start of administration)) [mm^3] | TV (mm^3, mean) d14 ([3]; d14) [mm^3] | IC50 (DLBCL cells) [nM] |
| --- | --- | --- | --- | --- | --- | --- | --- | --- | --- | --- | --- | --- | --- | --- | --- | --- |
| C[C@@H]1C(=O)N(C)c2ccc(-c3nc(C(=O)N4CCCN(C)CC4)nn3-c3ccccc3)cc2N1C1CCCC1 [Example 8] | 9.8 | 58 | 23.9 | 22.4 | 62 | 6 | 5 | no | no | 35 | no |  |  |  |  |  |
| Cc1sc2c(c1C)C(c1ccc(Cl)cc1)=N[C@@H](CC(=O)Nc1ccc(O)cc1)c1nnc(C)n1-2 [OTX-015, reference compound] |  |  |  |  |  |  |  |  |  |  |  | 603.15 | 49.90 | 184.48 | 886.75 | 192 |

Reference: patent US11078188B2, “Dihydroquinoxaline bromodomain recognition protein inhibitor, preparation method and use thereof” (SHANGHAI INSTITUTE OF MATERIA MEDICA, CHINESE ACADEMY OF …, priority 2017, dated 2021)
